In general, IC50 refers to the concentration that gives 50% inhibition. The term Km denotes the concentration of substrate that gives half-maximal velocity. A word on the Kd: it is the equilibrium constant for the complex coming apart. As a reminder, the EC50 is the concentration at which the effect is half-maximal.

Where two headings read alike, the source gives them in different places.

For data set [1], the target named is SARS-CoV-2 nsp14/nsp10 complex (Severe acute respiratory syndrome coronavirus 2, UniProt P0DTD1). Description: FRET-based exoribonuclease (ExoN) activity assay. It counts as biochemical. The settings on record: for IC50: nsp14/nsp10 pre-incubated with compound 1 h, n = 3, read-out: IC50 (± SD) ExoN.
The target of data set [2] is T1, SARS-CoV-2 nsp14 (Severe acute respiratory syndrome coronavirus 2, UniProt P0DTD1). It counts as biochemical. The settings on record: for Km: increasing molar equivalents of Au(I); for IC50: read-out: IC50 (± SD) MTase.
In data set [3] the target is T1, SARS-CoV-2 nsp14. Description: EMSA of nsp14 binding to dsRNA ExoN substrate. Particulars: 4 µM nsp14, 0–40 µM drug, 200 nM dsRNA. The source says: Next, we explored the inhibition mechanism of nsp14/nsp10 by Au(I). We first investigated the inhibition mode of Au(I) on the dual activities of nsp14, for which we selected Au(PEt3)Cl as a showcase. To explore the influence of Au(I) on the kinetics of the nsp14/nsp10 ExoN activity, a 20-nucleotide 5′-dU overhang conjugated to a Cy3/BHQ2 pair was used as an RNA duplex substrate. Then, the reciprocals of the reaction velocity and the concentration of the two substrates were used to plot the Lineweaver–Burk plot. And the Michaelis–Menten constant (Km) and the maximum reaction rate (Vmax) were calculated by nonlinear fitting to the Michaelis − Menten equation.
RNA-binding capability of nsp14 was determined by EMSA. […] For the bismuth(III) and Au(I) addition assays, nsp14 (4 µM) was pre-incubated with various concentrations of drugs (0, 1, 2, 4, 8, 20, 40 µM) in HEPES buffer for 2 h on ice before the RNA-binding assays before incubating with 200 nM of dsRNA at room temperature for 15 min. A 20 µL of the reaction mixture was then loaded onto 6% native-polyacrylamide gels and electrophoresed in 1xTBE buffer. Electrophoresis was carried out at 100 V for 50 min. Gels were subsequently stained by GelRed (Sigma Aldrich) for 5 min at room temperature and visualized through iBright™ CL750 Imaging System (Thermo Fisher Scientific).
ExoN substrates. Relative band intensities were quantified by ImageJ. […]
(In general: A gel shift assay detects complexes by their altered migration in electrophoresis.)

The target in data set [4] is T1, SARS-CoV-2 nsp14. Description: Metal displacement analysis (equilibrium dialysis, ICP-MS), nsp14. It counts as binding. From the text:
(§1) Since nsp14 and nsp10 have 3 and 2 zinc-finger motifs respectively, playing structural roles and as well as being important to the functions of nsp14/nsp10 complex. The soft nature of Au(I) makes it very likely to bind to the thiolates/nitrogen atoms in these cysteine/histidine-rich zinc-binding sites. To verify this, we then investigated the binding of Au(I) to the native nsp14 and nsp10 using equilibrium dialysis and determined the metal contents by inductively coupled plasma mass spectrometry (ICP-MS). […] Similarly, ca. 1.84 ± 0.66 mol equiv of Au(I) bound to per nsp10, accompanied by ca. 1.89 ± 0.28 mol equiv of Zn(II) release. […] In addition, since the ExoN activity of nsp14 is largely stimulated by nsp10, and nsp10 − nsp14 intermolecular interaction involves residues around the zinc finger of nsp10 [33, 34], we also examined the influence of Au(I) binding to nsp10 on the ExoN activity of nsp14.
(§2) Au(I) binding and Zn(II) release on nsp10 and nsp14 were determined by Inductively Coupled Plasma Mass Spectrometry (ICP-MS) on Agilent 7700 × ICP-MS (Agilent Technologies). […] Dialysis tubes loaded with 100 μL Zn-bound proteins (5 μM for nsp14 and nsp13 and 20 μM for nsp10) or protein buffer were placed into 50 mL dialysis buffer in the presence of different concentrations of Au(I) compounds (as Au(PEt3)Cl) with mild shaking at 18 °C overnight. The protein concentration was measured by bicinchoninic acid (BCA) assay, and the metal concentration of solution both inside and outside the dialysis tubes was determined by ICP-MS.
(In equilibrium dialysis only unbound substance equilibrates across the membrane.)

Another data set has as its target SARS-CoV-2 nsp10 (Severe acute respiratory syndrome coronavirus 2, UniProt P0DTD1). As to the kind of experiment: Metal displacement analysis (equilibrium dialysis, ICP-MS), nsp10. It counts as binding.
From the text: as §1, §2

Data set [5] deals with T1, SARS-CoV-2 nsp14. As to the kind of experiment: Circular dichroism spectroscopy of nsp14 (BeStSel). Particulars: CD deconvoluted by BeStSel; around 65% in untreated nsp14.
Data set [6] deals with T1, SARS-CoV-2 nsp14. As to the kind of experiment: Size-exclusion chromatography of nsp14. Particulars: 0−10 molar equivalents; monomer peak 9.6 mL decreases, peak at ca. 9.1 mL appears. Background: Size exclusion chromatography separates by hydrodynamic size, large species first.
For data set [7], the system named is SARS-CoV-2 Omicron BA.5 in VeroE6-TMPRSS2 cells. As to the kind of experiment: Plaque reduction assay. It counts as cell-based. Particulars: VeroE6-TMPRSS2, n = 2, read-out: EC50, inhibition of SARS-CoV-2 virus replication.
The next data set addresses nsp14 (ExoN/N7-MTase) (SARS-CoV-2 isolate Wuhan-Hu-1, UniProt P0DTD1 5926-6452). As to the kind of experiment: EMSA; no Au(I); 200 nM dsRNA, nsp14 0-8 uM. The settings on record: protein: recombinant; tags: N-terminal 6xHis, removed with thrombin; label: 5'-Cy3 on top strand; labels in EMSA not restated.
[8] abbreviates: nsp14 pre-incubated with compound 1 h, n = 3.

On to `CCP(CC)CC.[Au+].[Cl-]` [Au(PEt3)Cl, chloro(triethylphosphine)gold(I)], for which the “mode of inhibition of ExoN activity” value in [1] (Lineweaver–Burk / Michaelis–Menten analysis) is recorded as “noncompetitive”. The “Vmax, ExoN kinetics” value in [1] (decreased from 2.7 with different molar equivalents of Au(I)) is 0.5 nM/min. In data set [1], the IC50 was determined as 380 ± 40 nM. On SARS-CoV-2 nsp14 [2], the “Vmax, G(5′)ppp(5′)A RNA-dependent MTase kinetics” value is 0.12 µM/min and the “Vmax, SAM-dependent MTase kinetics” value came to 0.09 µM/min. Further, the “mode of inhibition of MTase activity” value at SARS-CoV-2 nsp14 [2] (SAM- and GpppA-RNA-dependent kinetics) is “noncompetitive”. Moreover, the Km at SARS-CoV-2 nsp14 [2] (read-out: Km, G(5′)ppp(5′)A RNA-dependent MTase kinetics) was determined as 1.18 ± 0.02 µM. On SARS-CoV-2 nsp14 [2] (read-out: Km, SAM-dependent MTase kinetics), the Km stood at 1.62 ± 0.02 µM. The IC50 at SARS-CoV-2 nsp14 [2] (setting [8]) was 4500 ± 980 nM. Moreover, on SARS-CoV-2 nsp14 [3], the “effect on formation of the nsp14−RNA complex” value is “negligible effects”. On SARS-CoV-2 nsp14 [4] (equilibrium dialysis, ICP-MS), the “Au(I) bound per nsp14” value is given as “ca. 2.95 ± 0.23 mol equiv” and the “Zn(II) release from nsp14” value is recorded as “ca. 2.56 ± 0.21 mol equiv”. Also, the “maximal binding capacity (Bmax), nsp14” value at SARS-CoV-2 nsp14 [4] (fit to specific binding plot) was found to be 3.10 ± 0.32. The Kd at SARS-CoV-2 nsp14 [4] (fit to specific binding plot, read-out: dissociation constant (Kd), nsp14) stood at 6540 ± 330 nM. In addition, at SARS-CoV-2 nsp10 (equilibrium dialysis, ICP-MS), the “Au(I) bound per nsp10” value is “ca. 1.84 ± 0.66 mol equiv” and the “Zn(II) release from nsp10” value is “ca. 1.89 ± 0.28 mol equiv”. Besides, at SARS-CoV-2 nsp10 (fit to specific binding plot), the “maximal binding capacity (Bmax), nsp10” value came to 1.75 ± 0.60. The equilibrium dissociation constant (Kd) at SARS-CoV-2 nsp10 (fit to specific binding plot, read-out: dissociation constant (Kd), nsp10) stood at 6550 ± 770 nM. The “helix content in nsp14 after treatment” value on SARS-CoV-2 nsp14 [5] is 36%. Further, the “effect on quaternary structure of nsp14” value on SARS-CoV-2 nsp14 [6] is “partial oligomerization”.
On to `[Cl][Au]` [AuCl, gold(I) chloride], for which the figures for the IC50 (in data set [1]; at SARS-CoV-2 nsp14 [2] (setting [8])) were 5780 ± 310 nM and 910 ± 10 nM, respectively.
Regarding `O=S(=O)([O-])[S-].O=S(=O)([O-])[S-].[Au+].[Na+].[Na+].[Na+]` [Na3Au(S2O3)2, gold(I) sodium thiosulfate], the IC50 in data set [1] is 1710 ± 90 nM; at SARS-CoV-2 nsp14 [2], 1770 ± 10 nM.
As to `[Cl][Au][PH]12CN3CN(CN(C3)C1)C2` [Urotropine-Au-Cl], the “ExoN enzyme activity remaining” value in [1] (50 mol equiv of compound) is on record as 0.68%.
As for `CC(=O)OC[C@H]1O[C@@H]([S-])[C@H](OC(C)=O)[C@@H](OC(C)=O)[C@@H]1OC(C)=O.CCP(CC)CC.[Au+]` [auranofin], in [7], the concentration giving a half-maximal response (EC50) is 730 ± 210 nM.
With “(1-(adamantan-1-yl)thiourea)-(triethylphosphine)-gold(I) [Au-amantadine]”, the IC50 in [1] stood at 1570 ± 120 nM; on SARS-CoV-2 nsp14 [2] (setting [8]), 8160 ± 180 nM.

B1: ExoN substrate dsRNA (dsRNA)
RNA 1: GGUAGUAAUCCGCUC
RNA 2: UUUUUUUUUUUUUUUUUUUUGAGCGGAUUACUACUACC
On to B1, for which the binding result with nsp14 (ExoN/N7-MTase) is given as “binds”.

The values above are taken from paper PMC12316777.
